Tests used:
[1] = tested on: eggplant; assay: Production increasing effects on eggplant (Experiment 9); assay type: in vivo
[2] = tested on: winter wheat Beinong 9549; assay: Winter wheat field experiment, demonstration park of high quality agricultural products center; assay type: in vivo; settings: for Increase rate: vs control; for Average production per mu: winter wheat Beinong 9549, repeated 3 times
Procedure: Experiments below are preceded with general fertilizing amount, and using the same fertilizing amount and the same fertilizing methods. […] The Agricultural Science Research Institute of […] District, Beijing • D. Qingyundian Station, the Agricultural Science Research Institute of […] District, Bejing • (2) Experimental protocols and production determination of winter wheat in every experimental site […] Production is determined on Jun.

[3] = tested on: winter wheat 9428; assay: Winter wheat field experiment, Qingyundian Station; assay type: in vivo; settings: for Production per mu: winter wheat 9428
Excerpt: (§1) Experiments below are preceded with general fertilizing amount, and using the same fertilizing amount and the same fertilizing methods.

[4] = tested on: winter wheat Jing411; assay: Winter wheat field experiment, Agricultural Science Research Institute of Daxing District; assay type: in vivo; settings: for Production increasing rate (comparing with control): in vivo; for Average production per mu: winter wheat Jing411
Excerpt: as §1

[5] = tested on: corn Jiyuan No. 1; assay: Corn field experiment; assay type: in vivo; settings: for Ear weight in the whole area: fresh weight of corn
Excerpt: Experiments below are preceded with general fertilizing amount, and using the same fertilizing amount and the same fertilizing methods. 2.

[6] = tested on: tomato Jinpengshengguan; assay: Tomato production experiment (Experiment 11); assay type: in vivo
[7] = not told
[8] = tested on: Ventura celery; assay: Celery production experiment
[9] = comparing with ordinary ammonium bicarbonate (ABC)
[10] = eggplant seedling, 0.0165 kg fertilizer per plant

Compound: ammonium bicarbonate [ABC]
- Increasing rate of eggplant fruit weight [1, 9]: 0%
- Increasing rate of leaf number [1, 9]: 0%
- Increasing rate of plant height [1, 9]: 0%
- Leaf number 1 ([1]; eggplant seedling): 15 number
- Leaf number 2 ([1]; eggplant seedling): 33 number
- Leaf number 3 ([1]; eggplant seedling): 4 number
- Leaf number 4 ([1]; eggplant seedling): 26 number
- Leaf number 5 ([1]; eggplant seedling): 28 number
- Leaf number 6 ([1]; eggplant seedling): 15 number
- Leaf number 7 ([1]; eggplant seedling): 28 number
- Plant height 1 [1, 10]: 64 cm
- Plant height 2 [1, 10]: 64 cm
- Plant height 3 [1, 10]: 32 cm
- Plant height 4 [1, 10]: 75 cm
- Plant height 5 [1, 10]: 65 cm
- Plant height 6 [1, 10]: 61 cm
- Plant height 7 [1, 10]: 62 cm
- Average height ([1]; eggplant seedling, 7 plants): 56.72 cm
- Average leaf number ([1]; eggplant seedling, 7 plants): 21.28 number
- Eggplant fruit weight ([1]; in vivo): 1.46 kg
- Increasing weight of eggplant fruit ([1]; over ordinary ammonium bicarbonate (ABC)): 0 kg
- Increase rate [2]: 15.63%
- Average production per mu [2]: 481 kg
- Production increasing rate ([3]; control = 0): 3.12%
- Production per mu [3]: 397 kg
- Production increasing rate (comparing with control) [4]: 3.33%
- Average production per mu [4]: 338.69 kg
- Ear weight in the whole area [5]: 39.6 kg
- Production increasing rate comparing with ammonium bicarbonate ([5]; in vivo): 0%
- Production increasing rate comparing with urea ([5]; in vivo): 4.07%

Compound: NC(N)=O [URA, urea]
- Increase rate [2]: 17.07%
- Average production per mu [2]: 487 kg
- Production increasing rate ([3]; control = 0): 10.39%
- Production increasing rate ([3]; general fertilizer = 0): 5.99%
- Production per mu [3]: 425 kg
- Production increasing rate (comparing with control) [4]: 0.28%
- Average production per mu [4]: 328.67 kg
- Ear weight in the whole area [5]: 38.1 kg
- Production increasing rate comparing with urea ([5]; in vivo): 0%
- Production increasing rate ([6]; control = 0): 9.80%
- Average area production ([6]; during growth of tomato, repeated 6 times): 109.65 kg
- Average of N2O—N annual emission flux [7]: 71.92 μg N2O/m^3-h
- N2O—N annual emission flux range [7]: −197-2867 μg N2O/m^3-h
- N2O—N emission flux/nitrogen fertilizer applied [7]: 1.98%
- Increasing rate comparing with urea ([8]; equal weight as urea): 0%
- Average fresh weight of plants ([8]; equal weight of fertilizers): 11.55 kg/20 plants
- Fresh weight of celery per mu ([8]; in vivo): 7703.85 kg
- Increase rate comparing with control ([8]; in vivo): 30.2%
- Production increased per mu ([8]; over control): 1787.56 kg
